Experiment: molar heat capacity at constant volume; wn = mass fraction of the nth substance listed
Conditions: Liquid, Vacuum adiabatic calorimetry, w2 = 0.4981

FC(F)C(F)(F)F [pentafluoroethane] + FCF
Conditions	molar heat capacity at constant volume [J/K/mol]
357.15 K, 9042 kPa	82.22
357.15 K, 9048 kPa	82.43
357.15 K, 16243 kPa	68.41
357.15 K, 16254 kPa	69.93
357.15 K, 16277 kPa	69.42
358.15 K, 9284 kPa	81.71
358.15 K, 9290 kPa	83.6
358.15 K, 16617 kPa	69.79
358.15 K, 16628 kPa	70.73
358.15 K, 16652 kPa	69.13
359.15 K, 9527 kPa	82.29
359.15 K, 9532 kPa	83.09
359.15 K, 16990 kPa	69.86
359.15 K, 17003 kPa	71.24
359.15 K, 17027 kPa	67.9
360.15 K, 9770 kPa	82.07
360.15 K, 9775 kPa	82.29
360.15 K, 17365 kPa	69.42
360.15 K, 17377 kPa	68.55
360.15 K, 17401 kPa	69.64
361.15 K, 10013 kPa	81.2
361.15 K, 10019 kPa	82.73
361.15 K, 17739 kPa	70.08
361.15 K, 17752 kPa	71.46
361.15 K, 17776 kPa	68.48
362.15 K, 10256 kPa	82.65
362.15 K, 10262 kPa	83.31
362.15 K, 18113 kPa	69.42
362.15 K, 18127 kPa	71.17
362.15 K, 18151 kPa	69.06
363.15 K, 10501 kPa	80.69
363.15 K, 10506 kPa	82.22
363.15 K, 18487 kPa	70.59
363.15 K, 18501 kPa	69.57
363.15 K, 18526 kPa	69.79
364.15 K, 10745 kPa	81.78
364.15 K, 10751 kPa	81.56
364.15 K, 18862 kPa	69.2
364.15 K, 18876 kPa	70.8
364.15 K, 18899 kPa	68.91
365.15 K, 10990 kPa	81.49
365.15 K, 10996 kPa	82.29
365.15 K, 19236 kPa	69.57
365.15 K, 19250 kPa	69.79
365.15 K, 19274 kPa	70.08
366.15 K, 11235 kPa	80.04
366.15 K, 11241 kPa	81.78
366.15 K, 19610 kPa	70
366.15 K, 19625 kPa	70.22
366.15 K, 19649 kPa	68.99
367.15 K, 11480 kPa	81.49
367.15 K, 11486 kPa	81.93
367.15 K, 19985 kPa	69.06
367.15 K, 20000 kPa	69.86
367.15 K, 20025 kPa	68.48
368.15 K, 11726 kPa	81.42
368.15 K, 11732 kPa	82.07
368.15 K, 20360 kPa	69.35
368.15 K, 20375 kPa	69.71
368.15 K, 20400 kPa	68.77
369.15 K, 11972 kPa	79.89
369.15 K, 11979 kPa	82.73
369.15 K, 20734 kPa	69.42
369.15 K, 20750 kPa	70
369.15 K, 20776 kPa	68.7
370.15 K, 12219 kPa	80.69
370.15 K, 12225 kPa	80.76
370.15 K, 21109 kPa	70.8
370.15 K, 21125 kPa	69.35
370.15 K, 21150 kPa	69.2
371.15 K, 12465 kPa	80.25
371.15 K, 12472 kPa	82.07
371.15 K, 21484 kPa	70.3
371.15 K, 21500 kPa	71.82
371.15 K, 21525 kPa	68.55
372.15 K, 12712 kPa	80.11
372.15 K, 12719 kPa	81.78
372.15 K, 21859 kPa	70.44
372.15 K, 21875 kPa	69.64
372.15 K, 21901 kPa	69.42
373.15 K, 12959 kPa	80.91
373.15 K, 12966 kPa	82.43
373.15 K, 22234 kPa	69.86
373.15 K, 22250 kPa	71.17
373.15 K, 22277 kPa	69.57
374.15 K, 13207 kPa	80.11
374.15 K, 13213 kPa	81.71
374.15 K, 22609 kPa	70.59
374.15 K, 22625 kPa	70.37
374.15 K, 22654 kPa	69.2
375.15 K, 13454 kPa	80.04
375.15 K, 13461 kPa	81.85
375.15 K, 22984 kPa	71.68
375.15 K, 23000 kPa	72.33
375.15 K, 23029 kPa	70.15
376.15 K, 13702 kPa	80.76
376.15 K, 13709 kPa	82.87
376.15 K, 23359 kPa	71.6
376.15 K, 23375 kPa	71.02
376.15 K, 23406 kPa	70.08
377.15 K, 13950 kPa	82.14
377.15 K, 13957 kPa	81.34
377.15 K, 23734 kPa	71.24
377.15 K, 23750 kPa	71.6
377.15 K, 23780 kPa	70.88
378.15 K, 14198 kPa	80.25
378.15 K, 14205 kPa	80.18
378.15 K, 24109 kPa	72.04
378.15 K, 24125 kPa	71.82
378.15 K, 24155 kPa	70.51
379.15 K, 14447 kPa	81.2
379.15 K, 14454 kPa	81.85
379.15 K, 24484 kPa	72.04
379.15 K, 24500 kPa	70.95
379.15 K, 24531 kPa	70.22
380.15 K, 14696 kPa	80.47
380.15 K, 14702 kPa	80.84
380.15 K, 24858 kPa	72.11
380.15 K, 24875 kPa	71.6
380.15 K, 24906 kPa	70.88
381.15 K, 14944 kPa	80.54
381.15 K, 14951 kPa	81.93
381.15 K, 25233 kPa	72.33
381.15 K, 25250 kPa	71.6
381.15 K, 25282 kPa	68.91
382.15 K, 15194 kPa	81.2
382.15 K, 15200 kPa	81.2
382.15 K, 25608 kPa	70.51
382.15 K, 25625 kPa	71.75
382.15 K, 25657 kPa	69.64
383.15 K, 15443 kPa	80.18
383.15 K, 15449 kPa	81.13
383.15 K, 25983 kPa	72.33
383.15 K, 26000 kPa	71.75
383.15 K, 26033 kPa	69.93
384.15 K, 15692 kPa	82.29
384.15 K, 15699 kPa	80.62
384.15 K, 26358 kPa	72.69
384.15 K, 26375 kPa	72.84
384.15 K, 26408 kPa	70
385.15 K, 15942 kPa	79.6
385.15 K, 15948 kPa	82.58
385.15 K, 26733 kPa	72.55
385.15 K, 26750 kPa	72.4
385.15 K, 26784 kPa	69.28
386.15 K, 16192 kPa	81.2
386.15 K, 16198 kPa	83.09
386.15 K, 27107 kPa	72.4
386.15 K, 27125 kPa	72.77
386.15 K, 27159 kPa	68.48
387.15 K, 16442 kPa	79.31
387.15 K, 16448 kPa	81.34
387.15 K, 27482 kPa	73.57
387.15 K, 27500 kPa	73.57
387.15 K, 27533 kPa	70.66
388.15 K, 16692 kPa	80.62
388.15 K, 16698 kPa	82.51
388.15 K, 27856 kPa	73.71
388.15 K, 27874 kPa	73.71
388.15 K, 27907 kPa	69.06
389.15 K, 16942 kPa	80.76
389.15 K, 16948 kPa	82.07
389.15 K, 28231 kPa	74.08
389.15 K, 28249 kPa	73.86
389.15 K, 28282 kPa	70.22
390.15 K, 17192 kPa	80.84
390.15 K, 17198 kPa	83.74
390.15 K, 28605 kPa	74.08
390.15 K, 28624 kPa	74.73
390.15 K, 28657 kPa	70.3
391.15 K, 17442 kPa	81.05
391.15 K, 17448 kPa	83.67
391.15 K, 28979 kPa	73.78
391.15 K, 28998 kPa	72.77
391.15 K, 29032 kPa	70.44
392.15 K, 17692 kPa	81.05
392.15 K, 17698 kPa	81.34
392.15 K, 29354 kPa	72.77
392.15 K, 29373 kPa	71.31
392.15 K, 29407 kPa	68.84
393.15 K, 17943 kPa	79.38
393.15 K, 17949 kPa	81.27
393.15 K, 29728 kPa	74
393.15 K, 29782 kPa	72.19
394.15 K, 18193 kPa	82
394.15 K, 18199 kPa	80.84
395.15 K, 18444 kPa	80.18
395.15 K, 18450 kPa	83.89
396.15 K, 18701 kPa	80.62
397.15 K, 18951 kPa	82.36

From the NIST ThermoML archive (doi:10.1007/s10765-010-0766-0)
